From PubChem BioAssay (NCI)
Several values for one entry are separate records, joined by “and”; a condition that tells them apart may be missing. Equal entries are not always repeated.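 Grown in 96-well plates, cells were treated for 48 hours with each compound at five concentrations. Insufficient inhibition: endpoint recorded as highest concentration tested. GI50 = concentration required for 50% inhibition of growth. TGI marks complete inhibition of growth.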

Tests used:
Experiment in all cases: NCI tumour cell line growth inhibition, 48 h
[1] = system: M14 melanoma
[2] = system: SK-OV-3 ovarian
[3] = system: MOLT-4 leukemia
[4] = system: KM12 colon
[5] = system: IGROV1 ovarian
[6] = system: DU-145 prostate
[7] = system: HCC-2998 colon
[8] = system: SF-295 CNS
[9] = system: MALME-3M melanoma
[10] = system: CCRF-CEM leukemia

| Structure (SMILES) | GI50 [1] | TGI [1] | GI50 [2] | TGI [2] | GI50 [3] [µM] | TGI [3] [µM] | GI50 [4] | TGI [4] | GI50 [5] [µM] | TGI [5] [µM] | GI50 [6] | TGI [6] | GI50 [7] | TGI [7] | GI50 [8] | TGI [8] | TGI [9] [µM] | TGI [10] [µM] | GI50 [9] [µM] | GI50 [10] [µM] |
| --- | --- | --- | --- | --- | --- | --- | --- | --- | --- | --- | --- | --- | --- | --- | --- | --- | --- | --- | --- | --- |
| Cc1cc2c(cc1C)[n+](=O)c(C(=O)c1cccs1)c(C(F)(F)F)n2[O-] | 14.6 µM and 13.5 µM | 50 µM and > 100 µM | 7.95 µM and 10.3 µM | 50 µM and 49 µM | 4.39 | 50 | 5.38 µM and 10.3 µM | 12.6 µM and 51.9 µM | 0.683 | 5.31 | 1.05 µM and 2.15 µM | 4.12 µM and 6.87 µM | 6.86 µM and 2.08 µM | 20.9 µM and 5.24 µM | 0.603 µM and 2.89 µM | 3.34 µM and 12.9 µM |  |  |  |  |
| CC(=O)NC(Cc1c[nH]c2ccccc12)C(=O)O (configuration not stated) |  | > 100 µM |  | > 100 µM |  |  |  | > 100 µM |  | > 100 |  | > 100 µM |  |  |  | > 100 µM | > 100 | > 100 |  |  |
| C/C=C/CP(=O)(c1ccccc1)c1ccccc1 |  | > 100 µM |  | > 100 µM |  | > 100 |  | > 100 µM |  | > 100 |  |  |  | > 100 µM |  | > 100 µM | > 100 | > 100 |  |  |
| c1cc2[se][se]c3c4cccc5[se][se]c(c(c1)c23)c54 |  | > 100 µM |  | > 100 µM |  | > 100 |  | > 100 µM |  | > 100 |  |  |  |  |  | > 100 µM | > 100 | > 100 |  |  |
| CC(=O)[CH-]C(C)=O.CC(=O)[CH-]C(C)=O.CC(=O)[CH-]C(C)=O.[Cl-].[Hf+4] | > 100 µM | > 100 µM | > 100 µM | > 100 µM | > 100 | > 100 | > 100 µM | > 100 µM | > 100 | > 100 |  |  | > 100 µM | > 100 µM | > 100 µM | > 100 µM | > 100 | > 100 | > 100 | > 100 |
| O=C(Nc1ccc(N=Nc2ccccc2)cc1)Sc1ccccc1C(=O)O |  | > 100 µM |  |  |  | > 100 |  | > 100 µM |  | 2.48 |  |  |  | > 100 µM |  | > 100 µM |  |  |  |  |
| N#Cc1c(SCc2ccccc2)nc2[nH]c(=S)[nH]c(=S)c2c1-c1ccco1 | > 100 µM | > 100 µM | > 100 µM | > 100 µM | 5.04 | > 100 | 60.3 µM | > 100 µM | > 100 | > 100 | 54 µM | > 100 µM |  |  | 43.5 µM | > 100 µM |  |  |  |  |
| Cc1ccc(C2=NN(C)COC2C(F)(F)F)cc1 (configuration not stated) |  | > 100 µM |  | > 100 µM |  | > 100 |  | > 100 µM |  | > 100 |  |  |  | > 100 µM |  | > 100 µM | > 100 | > 100 |  |  |
| COc1ccc(C(=O)O)c2c(=O)c3ccccc3[nH]c12 |  | > 31.6 µM |  | > 100 µM |  | > 100 |  | > 100 µM |  | > 100 |  |  |  | > 100 µM |  | > 100 µM | > 100 | > 31.6 |  |  |
| CC1CC(C)C(=O)C(C(=O)CC2CC(=O)NC2=O)C1 (configuration not stated) |  | > 100 µM |  | > 100 µM |  |  |  | > 100 µM |  | > 100 |  |  |  | > 100 µM |  | > 100 µM | > 100 | > 100 |  |  |
| C[C@]12CC[C@@H]3c4ccc(OCC(=O)O)cc4CC[C@H]3[C@@H]1CCC2=O |  | > 100 µM |  | > 100 µM |  | 64.4 |  | > 100 µM |  | > 100 |  | > 100 µM |  |  |  | > 100 µM | > 100 | 4.48 |  |  |
| O=C(O/N=C1/CCC/C1=C\c1ccccc1)c1ccccc1 |  | > 100 µM |  | > 100 µM |  | 78.1 |  | > 100 µM |  | > 100 |  |  |  |  |  | > 100 µM | > 100 | > 100 |  |  |
| N#Cc1c(C(N)=O)ncn1Cc1ccccc1 |  | > 100 µM |  | > 100 µM |  | > 100 |  | > 100 µM |  | > 100 |  |  |  | > 100 µM |  | > 100 µM | > 100 | > 100 |  |  |
| O=C(CC1(O)C(=O)Nc2ccccc21)c1ccc(O)cc1O (configuration not stated) |  | > 100 µM |  | > 100 µM |  | > 100 |  |  |  | > 100 |  |  |  |  |  | > 100 µM | > 100 |  |  |  |
| Cn1cc(C(=O)/C(Cl)=C(\Cl)C(=O)O)c2ccccc21 |  | > 100 µM |  | > 100 µM |  | > 100 |  | > 100 µM |  | > 100 |  |  |  | > 100 µM |  | > 100 µM | > 100 | > 100 |  |  |
| CC1(C)OC(=O)C=C(O)O1.CC1(C)OC(=O)C=C(O)O1.CCO.Oc1ccc2c(c1)CCC2.[Ti] | > 100 µM | > 100 µM | > 100 µM | > 100 µM | > 100 | > 100 | > 100 µM | > 100 µM | > 100 | > 100 |  |  |  |  | > 100 µM | > 100 µM | > 100 | > 100 | > 100 | > 100 |
